ChEMBL document CHEMBL1144683, “Design, synthesis and antiproliferative properties of oligomers with chromophore units linked by amide backbones” (Bioorg Med Chem Lett, 2008)
Activity calls are given as the source filed them. The calls are words filed in the database; no cut-off is given here.

How the values were obtained:
GLC-4S = experiment: (§1) Antiproliferative activity against human GLC-4S cells by MTT assay; format: functional, cell-based
[1] = Antiproliferative activity against mouse NIH-3T3 cells by MTT assay; format: cell-based, NIH3T3; conditions: for Activity: mouse, nih3t3; for IC50: Mus musculus, NIH3T3
Jurkat = experiment: Antiproliferative activity against human Jurkat E6-1 cells by MTT assay; format: functional, cell-based
[2] = as §1; format: functional, cell-based

Row | SMILES | IC50 (Jurkat) [µM] | Activity (GLC-4S) | Activity [1] | Activity (Jurkat) | IC50 [2] [µM] | IC50 [1] [µM]
1 | O=C(O)CNC(=O)c1c2ccccc2nc2ccccc12 |  | inactive | Not Active | inactive |  | 
2 | O=C(O)CNC(=O)c1c2ccccc2nc2c1[nH]c1ccccc12 | 12 | inactive | Not Active |  |  | 
3 | CC(=O)N[C@H]1C[C@@H](C(=O)N[C@H]2C[C@@H](C(N)=O)N(C(=O)CNC(=O)c3c4ccccc4nc4c3[nH]c3ccccc34)C2)N(C(=O)CNC(=O)c2c3ccccc3nc3ccccc23)C1 | 92 |  |  |  | 125 | 376
4 | CC(=O)N[C@H]1C[C@@H](C(=O)N[C@H]2C[C@@H](C(=O)N[C@H]3C[C@@H](C(N)=O)N(C(=O)CNC(=O)c4c5ccccc5nc5c4[nH]c4ccccc45)C3)N(C(=O)CNC(=O)c3c4ccccc4nc4ccccc34)C2)N(C(=O)CNC(=O)c2c3ccccc3nc3c2[nH]c2ccccc23)C1 | 112 |  |  |  | 82 | 263
5 | COC(=O)CNC(=O)c1c2ccccc2nc2ccccc12 |  | inactive | Not Active | inactive |  | 
6 | CC(=O)N[C@H]1C[C@@H](C(=O)NC2C[C@@H](C(=O)NC3C[C@@H](C(N)=O)N(C(=O)CNC(=O)c4c5ccccc5nc5ccccc45)C3)N(C(=O)CNC(=O)c3c4ccccc4nc4ccccc34)C2)N(C(=O)CNC(=O)c2c3ccccc3nc3ccccc23)C1 (some centres not stated) |  |  | Not Active | inactive | 134 | 
7 | COC(=O)CNC(=O)c1c2ccccc2nc2c1[nH]c1ccccc12 | 8 | inactive | Not Active |  |  | 
8 | CC(=O)N[C@H]1C[C@@H](C(=O)N[C@H]2C[C@@H](C(N)=O)N(C(=O)CNC(=O)c3c4ccccc4nc4ccccc34)C2)N(C(=O)CNC(=O)c2c3ccccc3nc3c2[nH]c2ccccc23)C1 | 120 |  | Not Active |  | 165 | 

The remaining compounds from weak to strong by IC50 (Jurkat), led by results:

Row | IC50 (Jurkat) [µM] | SMILES | Activity (GLC-4S) | Activity [1] | Activity (Jurkat) | IC50 [2] [µM] | IC50 [1] [µM]
9 | 149 | CC(=O)N[C@H]1C[C@@H](C(=O)N[C@H]2C[C@@H](C(N)=O)N(C(=O)CNC(=O)c3c4ccccc4nc4ccccc34)C2)N(C(=O)CNC(=O)c2c3ccccc3nc3ccccc23)C1 |  | Not Active |  | 135 | 
10 | 129 | CC(=O)N[C@H]1C[C@@H](C(=O)N[C@H]2C[C@@H](C(=O)N[C@H]3C[C@@H](C(N)=O)N(C(=O)CNC(=O)c4c5ccccc5nc5ccccc45)C3)N(C(=O)CNC(=O)c3c4ccccc4nc4ccccc34)C2)N(C(=O)CNC(=O)c2c3ccccc3nc3c2[nH]c2ccccc23)C1 |  |  |  | 169 | 357
11 | 103 | CC(=O)N[C@H]1C[C@@H](C(=O)N[C@H]2C[C@@H](C(=O)N[C@H]3C[C@@H](C(N)=O)N(C(=O)CNC(=O)c4c5ccccc5nc5c4[nH]c4ccccc45)C3)N(C(=O)CNC(=O)c3c4ccccc4nc4c3[nH]c3ccccc34)C2)N(C(=O)CNC(=O)c2c3ccccc3nc3ccccc23)C1 |  |  |  | 151 | 227
12 | 87 | CC(=O)N[C@H]1C[C@@H](C(=O)N[C@H]2C[C@@H](C(=O)N[C@H]3C[C@@H](C(N)=O)N(C(=O)CNC(=O)c4c5ccccc5nc5ccccc45)C3)N(C(=O)CNC(=O)c3c4ccccc4nc4c3[nH]c3ccccc34)C2)N(C(=O)CNC(=O)c2c3ccccc3nc3ccccc23)C1 |  | Not Active |  | 91 | 
13 | 86 | CC(=O)N[C@H]1C[C@@H](C(=O)N[C@H]2C[C@@H](C(=O)N[C@H]3C[C@@H](C(N)=O)N(C(=O)CNC(=O)c4c5ccccc5nc5c4[nH]c4ccccc45)C3)N(C(=O)CNC(=O)c3c4ccccc4nc4ccccc34)C2)N(C(=O)CNC(=O)c2c3ccccc3nc3ccccc23)C1 |  |  |  | 174 | 426
14 | 37 | CC(=O)N[C@H]1C[C@@H](C(=O)N[C@H]2C[C@@H](C(N)=O)N(C(=O)CNC(=O)c3c4ccccc4nc4c3[nH]c3ccccc34)C2)N(C(=O)CNC(=O)c2c3ccccc3nc3c2[nH]c2ccccc23)C1 |  | Not Active |  | 54 | 
